The text below walks through data of US20100069433A1, “PROPHYLACTIC AND/OR THERAPEUTIC AGENT FOR HYPERLIPIDEMIA” (KOWA COMPANY, LTD., priority 2007, published 2010).

The test system of assay [1] is triglyceride concentration in blood plasma. In words: Plasma triglyceride concentration in Zucker fatty rats after repeated oral administration (Example 2). The assay is classed as in vivo, Male Zucker fatty rats. As to conditions: compound A 0.1 mg/kg, pitavastatin 10 mg/kg, fenofibrate 100 mg/kg; for triglyceride concentration in blood plasma, Average value ± Standard error / triglyceride concentration in blood plasma, Relative value compared to control group: two weeks (14th day), oral once a day, N = 7-8; for rate of decrease of the triglyceride concentration in blood plasma: two weeks, vs control group. How it is done:
The effect of administration of compound A and pitavastatin on the plasma triglyceride concentration in this animal model was determined according to the following methods.
Male Zucker fatty rats (Crlj: ZUC-Lepr^fa, Japan Charles River Co. Ltd., 10 weeks old) were taken for the test.
Throughout the test period, the rats were bred in a breeding room maintained with a light/dark cycle (bright period under room light: 7 A.M. to 7 P.M.) at a temperature of 23±3° C. and a humidity of 55±15%, and were allowed to freely take solid feedstuff (CE-2; Oriental Yeast Co. Ltd.) and tap water.
Compound A, pitavastatin and fenofibrate (Sigma-Aldrich Co. Ltd.) were each suspended in a 0.5 mass % aqueous solution of methylcellulose (Metolose (registered trademark) SM-400, Shin-Etsu Chemical Co. Ltd.), and the amount of administration of the aqueous solution was adjusted to be 2 mL/kg. The suspension was stored in a shading bottle under refrigeration (4° C.), and the preparation was carried out once every 7 days. Additionally, when the pitavastatin was a hydrate as in the case of the present Example, the water content of a standard product was measured by a conventional method known to those ordinarily skilled in the art, and the amount required in the production of drug based on the water content of the “pitavastatin calcium hydrate” used in the present Example was calculated.
In order to average the total cholesterol concentration and the triglyceride concentration in blood plasma, the rats were divided into the following six groups (eight animals each group), that is, a control group as a first group, a group administered with compound A only (0.1 mg/kg) as a second group, a group administered with pitavastatin only (10 mg/kg) as a third group, a group administered with fenofibrate only (100 mg/kg) as a fourth group, a group administered with pitavastatin (10 mg/kg) and compound A (0.1 mg/kg) in combination as a fifth group, and a group administered with pitavastatin (10 mg/kg) and fenofibrate (100 mg/kg) in combination as a sixth group.
The two medicaments were orally administered repeatedly for 14 days at a rate of once a day (in the morning). The control group of the first group was orally administered with 2 mL/kg of a 0.5 mass % aqueous solution of methylcellulose.
On the 14th day after the initiation of administration, the rats were fasted for 4 hours from administration, then blood was collected, and the triglyceride concentration in blood plasma was measured by an enzymatic method.
A multiple group comparison between the control group and the drug administered groups was conducted using Dunnett's multiple comparison test. A risk rate of less than 5% was determined to have a significant difference.

Assay [2] concerns total plasma cholesterol concentration. As to conditions: results of clinical trials; cited from earlier work.
In assay [3] the test system is triglyceride concentration in blood plasma. The assay can be described thus: Triglyceride concentration in blood plasma of rats after repeated oral administration (Example 1). As to conditions: two weeks after the initiation of administration (14th day), oral once a day, pitavastatin 10 mg/kg, compound A 0.3 mg/kg, N = 8; for triglyceride concentration in blood plasma, Average value ± Standard error: in mg/dL. The assay is classed as in vivo, Male Sprague Dawley rats. As to the method:
(§1) Male Sprague Dawley rats (Crl: CD (SD), Japan Charles River Co. Ltd., 6 weeks old) were taken for the test. Throughout the test period, the rats were bred in a breeding room maintained with a light/dark cycle (bright period under room light: 7 A.M. to 7 P.M.) at a temperature of 23±3° C. and a humidity of 55±15%, and were allowed to freely take solid feedstuff (CE-2; Oriental Yeast Co. Ltd.) and tap water. Compound A and pitavastatin were each suspended in a 0.5 mass % aqueous solution of methylcellulose (Metolose (registered trademark) SM-400, Shin-Etsu Chemical Co. Ltd.), and the amount of administration of the aqueous solution was adjusted to be 2 mL/kg. The suspension was stored in a shading bottle under refrigeration (4° C.), and the preparation was performed once every 7 days. Additionally, when the pitavastatin is a hydrate as in the case of the present Example, the water content of a standard product can be measured by a conventional method known to those ordinarily skilled in the art, and the amount required in the production of drug based on the water content of the “pitavastatin calcium hydrate” used in the present Example can be calculated. […] The two medicaments were orally administered repeatedly for 14 days at a rate of once a day (in the morning). The control group of the first group was orally administered with 2 mL/kg of a 0.5 mass % aqueous solution of methylcellulose. […] Furthermore, the LDL-cholesterol concentration in blood plasma was measured using high performance liquid chromatography according to the method of Usui et al. (Lipid Res., 43:805-814, 2002). The results were shown in the form of average value±standard error. A multiple group comparison between the control group and the drug administered groups was conducted using Dunnett' s multiple comparison test. A risk rate of less than 5% was determined to have a significant difference.

The test system of assay [4] is total cholesterol concentration in blood plasma. The assay can be described thus: Total cholesterol concentration in blood plasma of rats after repeated oral administration (Example 1). The class given is in vivo, Male Sprague Dawley rats. As to conditions: oral once a day, pitavastatin 10 mg/kg, compound A 0.3 mg/kg, N = 8. As to the method: as §1
In a further assay the test system is blood glucose level. In words: Oral glucose tolerance test in Zucker fatty rats (Example 3). The class given is in vivo, Male Zucker fatty rats. As to conditions: 28 days oral once a day, compound A 0.3 mg/kg, pitavastatin 3 mg/kg, fenofibrate 100 mg/kg. How it is done:
As a method for examining diabetes mellitus, an oral glucose tolerance test, that is, a method in which a test subject fasted overnight is orally fed with a glucose solution, and blood is collected before and after the feeding, to examine the degree of increase in the blood glucose level, is widely performed. Thus, the Zucker fatty rat was used and administered with medicaments, and then an oral glucose tolerance test was performed to investigate the influence of the medicament of the present invention exerted on the blood glucose level. Male Zucker fatty rats (Crlj: ZUC-Lepr^fa, Japan Charles River Co. Ltd., 9 weeks old) were taken for the test. […] Additionally, when the pitavastatin was a hydrate as in the case of the present Example, the water content of a standard product was measured by a conventional method known to those ordinarily skilled in the art, and the amount required in the production of drug based on the water content of the “pitavastatin calcium hydrate” used in the present Example was calculated. […] The blood glucose level was measured by an enzymatic method. […] A risk rate of less than 5% was determined to have a significant difference.

Assay [5] has as its system LDL-cholesterol concentration in blood plasma. The assay can be described thus: LDL-cholesterol concentration in blood plasma of rats after repeated oral administration (Example 1). The class given is in vivo, Male Sprague Dawley rats. Particulars: one week after the administration, oral once a day, pitavastatin 10 mg/kg, compound A 0.3 mg/kg, N = 8; for LDL-cholesterol concentration in blood plasma, Average value ± Standard error: in mg/dL. How it is done: as §1

[6] abbreviates: one week after administration (7th day), 4 h fasted.
The mark [7] stands for this setting: two weeks after the initiation of administration (14th day).
Where [8] appears, read: two weeks after the initiation of administration (14th day), in mg/dL.

`CC(C)OC(=O)C(C)(C)Oc1ccc(C(=O)c2ccc(Cl)cc2)cc1` [Fenofibrate, fenofibrate]: in assay [1], the “triglyceride concentration in blood plasma, Average value ± Standard error” value is listed as 546.3 ± 58.9 mg/dL; the “triglyceride concentration in blood plasma, Relative value compared to control group” value turned out to be 0.841; the “rate of decrease of the triglyceride concentration in blood plasma” value (shortened to “rate of decrease … in blood plasma”) worked out at 16%.

For `O=C(O)C[C@H](O)C[C@H](O)/C=C/c1c(C2CC2)nc2ccccc2c1-c1ccc(F)cc1` [Pitavastatin, pitavastatin calcium hydrate], the “rate of improvement in the total plasma cholesterol concentration” value in assay [2] is recorded as 93.9%. Also, the figures for the “triglyceride concentration in blood plasma, Average value ± Standard error” value in assay [1] and in assay [3] were 612.2 ± 61.0 mg/dL and 38.9 ± 3.1, respectively. Also, the “triglyceride concentration in blood plasma, Relative value compared to control group” value in assay [1] turned out to be 0.943; in assay [3], 0.942; in assay [3] (calcium hydrate), 0.806. Besides, the “rate of decrease … in blood plasma” value in assay [1] turned out to be 6%. The figures for the “total cholesterol concentration in blood plasma, Average value ± Standard error” value in assay [4] (setting [6]) and in assay [4] (setting [8]) were 55.1 ± 5.7 mg/dL and 57.5 ± 6.6, respectively. In addition, the “total cholesterol concentration in blood plasma, Relative value compared to control group” value in assay [4] (one week after administration (7th day), calcium hydrate) was determined as 0.903; in assay [4] (one week after administration (7th day), listed as pitavastatin, calcium hydrate), 0.792; in assay [4] (setting [7]), 0.997. Further, the “change in blood glucose level over time after glucose loading (FIG. 3A)” value with blood glucose level is listed as “rapid increases in the blood glucose level”. Besides, the “LDL-cholesterol concentration in blood plasma, Relative value compared to control group” value in assay [5] came out at 0.974. Further, the “LDL-cholesterol concentration in blood plasma, Average value ± Standard error” value in assay [5] worked out at 11.3 ± 1.8.

As to `CC[C@@H](Oc1cccc(CN(CCCOc2ccc(OC)cc2)c2nc3ccccc3o2)c1)C(=O)O` [Compound A, (R)-2-[3-[[N-(Benzoxazol-2-yl)-N-3-(4-methoxyphenoxy)propyl]aminomethyl]phenoxy]butyric acid], the “triglyceride concentration in blood plasma, Average value ± Standard error” value is reported as 518.0 ± 106.0 mg/dL in assay [1] and 33.3 ± 2.2 in assay [3]. Moreover, the results for the “triglyceride concentration in blood plasma, Relative value compared to control group” value in assay [1], in assay [3] and in assay [3] (listed as compound A) were 0.798, 0.806 and 0.942, respectively. Also, the “rate of decrease … in blood plasma” value in assay [1] stood at 20%. Also, the “total cholesterol concentration in blood plasma, Average value ± Standard error” value stood at 48.3 ± 1.8 mg/dL in assay [4] (setting [6]) and 43.4 ± 1.9 in assay [4] (setting [8]). Also, the “total cholesterol concentration in blood plasma, Relative value compared to control group” value in assay [4] (one week after administration (7th day)) is on record as 0.792; in assay [4] (one week after administration (7th day), listed as compound A) it was 0.903; in assay [4] (setting [7]) it was 0.752. The “change in blood glucose level over time after glucose loading (FIG. 3A)” value in the assay on blood glucose level is recorded as “rapid increases in the blood glucose level”. Besides, in assay [5], the “LDL-cholesterol concentration in blood plasma, Relative value compared to control group” value was 0.698. In assay [5], the “LDL-cholesterol concentration in blood plasma, Average value ± Standard error” value is 8.1 ± 0.4.
